From ChEMBL document CHEMBL5233251, “Epoxide containing molecules: A good or a bad drug design approach” (Eur J Med Chem, 2020)
Converted amounts (≈) assume the structure as drawn. One block for each compound: values may come before it. Where a SMILES comes first, the peptide text is derived from it. [ ]: non-standard residue; d: D form. Aoe = N[C@@H](CCCCCC(=O)[C@@H]1CO1)C(=O)O

Assays:
[1] = Induction of apoptosis in human multiple myeloma cell; format: functional, cell-based
SUD4 = assay: Antitumor activity against human SU-DHL-4 cells assessed as reduction in cell viability; format: functional, cell-based
[2] = Antitumor activity against human INA-6 cells assessed as reduction in cell viability; format: functional, cell-based
RPMI-8226 = assay: Antitumor activity against human RPMI-8226 cells assessed as reduction in cell viability; format: functional, cell-based
DOHH-2 = assay: Antitumor activity against human DOHH-2 cells assessed as reduction in cell viability; format: functional, cell-based
MCF7 = assay: Cytotoxicity against human MCF7 cells incubated for 24 hrs by MTT assay; format: functional, cell-based; details: MCF7, 24 h
[3] = Cytotoxicity against human BEAS-2B assessed as reduction in cell viability incubated for 72 hrs by MTT assay; format: toxicity, cell-based; details: BEAS-2B cells
NCI-H1299 = assay: Antiproliferative activity against human NCI-H1299 cells assessed as reduction in cell viability incubated for 72 hrs by MTT assay; format: functional, cell-based; details: NCI-H1299, 72 h
NCI-H460 = assay: Antiproliferative activity against human NCI-H460 cells assessed as reduction in cell viability incubated for 72 hrs by MTT assay; format: functional, cell-based; details: NCI-H460, 72 h
SK-MES-1 = assay: Antiproliferative activity against human SK-MES-1 cells assessed as reduction in cell viability incubated for 72 hrs by MTT assay; format: functional, cell-based; details: SK-MES-1, 72 h
A549 = assay: Antiproliferative activity against human A549 cells assessed as reduction in cell viability incubated for 72 hrs by MTT assay; format: functional, cell-based; details: A549, 72 h
Calu-3 = assay: Antiproliferative activity against human Calu-3 cells assessed as reduction in cell viability incubated for 72 hrs by MTT assay; format: functional, cell-based; details: Calu-3, 72 h
MIA PaCa-2 = assay: Cytotoxicity against human MIA PaCa-2 cells assessed as inhibition of cell proliferation incubated for 72 hrs by MTT assay; format: functional, cell-based
HUVEC = assay: (§1) Cytotoxicity against HUVEC cells assessed as inhibition of cell growth incubated for 72 hrs by MTT assay; format: toxicity, cell-based, Homo sapiens; details: huvec
[4] = Cytotoxicity against human DeFew cells assessed as inhibition of cell proliferation incubated for 72 hrs by MTT assay; format: functional, cell-based
OVCAR-8 [5] = assay: Antiproliferative activity against human OVCAR-8 cells assessed as inhibition of cell growth at 25 ug/ml incubated for 72 hrs by MTT assay relative to control; format: functional; design: scale not given: the % may be the effect or the level left; details: dose 25 µg/ml
SF-295 [6] = assay: Antiproliferative activity against human SF-295 cells assessed as inhibition of cell growth at 25 ug/ml incubated for 72 hrs by MTT assay relative to control; format: functional; design: scale not given: the % may be the effect or the level left; details: dose 25 µg/ml
OVCAR-8 [7] = assay: Antiproliferative activity against human OVCAR-8 cells assessed as inhibition of cell growth incubated for 72 hrs by MTT assay; format: functional, cell-based; details: OVCAR-8, 72 h
SF-295 [8] = assay: Antiproliferative activity against human SF-295 cells assessed as inhibition of cell growth incubated for 72 hrs by MTT assay; format: functional, cell-based; details: SF-295, 72 h
HL-60 = assay: Antiproliferative activity against human HL-60 cells assessed as inhibition of cell growth incubated for 72 hrs by MTT assay; format: functional, cell-based; details: HL-60, 72 h
Leishmania donovani = assay: Antileishmanial activity against Leishmania donovani promastigotes; format: functional, organism-based
HCT-116 [9] = assay: Antiproliferative activity against human HCT-116 cells assessed as inhibition of cell growth incubated for 72 hrs by MTT assay; format: functional, cell-based; details: HCT-116, 72 h
HCT-116 [10] = assay: Antiproliferative activity against human HCT-116 cells assessed as inhibition of cell growth at 25 ug/ml incubated for 72 hrs by MTT assay relative to control; format: functional; design: scale not given: the % may be the effect or the level left; details: dose 25 µg/ml
[11] = as §1; format: toxicity, cell-based, Homo sapiens; details: human, HUVEC cells
BE(2)-C = assay: Antiproliferative activity against human BE2C cells assessed as inhibition of cell growth by tryphan blue exclusion assay; format: functional, cell-based
T47D = assay: Antiproliferative activity against human T47D cells assessed as inhibition of cell proliferation incubated for 72 hrs by DAPI staining based flow cytometric analysis; format: functional
[12] = Antiproliferative activity against human SH-EP cells assessed as inhibition of cell growth by tryphan blue exclusion assay; format: functional, cell-based
B16 = assay: Antitumor activity against mouse B16 cells implanted in BDF1 mouse assessed as T/C ratio at 25 mg/kg, ip administered from day 1 to 5 and measured after 60 days; format: functional; details: time 60 day
Sarcoma-180 [13] = assay: Antitumor activity against mouse Sarcoma-180 cells solid form implanted in ICR mouse assessed as T/C ratio at 12.5 mg/kg, ip administered from day 1 to 5 and measured after 60 days; format: functional; details: time 60 day
[14] = Antitumor activity against IMC (unknown origin) cells xenografted in CDF1 mouse assessed as T/C ratio at 200 mg/kg, ip administered from day 1 to 5 and measured after 60 days; format: functional; details: time 60 day
Ehrlich = assay: Antitumor activity against mouse Ehrlich cells implanted in ddY mouse assessed as T/C ratio at 70 mg/kg administered for 9 to 10 days; format: functional; details: time 9-10 day
Sarcoma-180 [15] = assay: Antitumor activity against mouse Sarcoma-180 cells ascitic form implanted in ICR mouse assessed as T/C ratio at 100 mg/kg, ip administered from day 1 to 5 and measured after 60 days; format: functional; details: time 60 day
SW480 = assay: Induction of apoptosis in human SW480 cells assessed as accumulation of cells at 5 uM incubated for 24 hrs by Acridine orange/ethidium bromide staining based fluorescent microscopic analysis (reference value: 13.6%); format: functional

- EC50 [1]: 11 µM
- EC50 (RPMI-8226): 7.6 µM
Compound: CC1=C(O)C(=O)c2c(ccc(O)c2O)C1=O [DIONCOQUINONE B]
- EC50 (SUD4): 7.6 µM
- EC50 [2]: 7.6 µM
- EC50 (DOHH-2): 7.6 µM

Compound: COc1cc(CNC(=O)CCCCC2OC2C(C)C)ccc1O (stereo not given)
- IC50 (MCF7): 50 µM

Compound: CC(=O)O[C@H]1[C@H]2O[C@]23[C@@H]2CC[C@@H]4C[C@@H](O)CC[C@]4(C)[C@H]2CC[C@]3(C)[C@H]1c1ccc(=O)oc1 [CINOBUFAGIN]
- IC50 at 72 h [3]: 22.3 µM
- IC50 (NCI-H1299): 2.3 µM
- IC50 (NCI-H460): 2.3 µM
- IC50 (SK-MES-1): 2.3 µM
- IC50 (A549): 2.3 µM
- IC50 (Calu-3): 2.3 µM

Compound: CC(C)=CCCC1(C)OC1C=O (stereo in doubt; 10a)
- IC50 (MIA PaCa-2; mia paca-2): 88.7 µM
- IC50 (HUVEC): 200 µM
- IC50 ([4]; defew): 45 µM

- IC50 (OVCAR-8 [7]): 1.03 µg/mL (≈ 6.2 µM)
- IC50 (HL-60): 1.03 µg/mL (≈ 6.2 µM)
- IC50 (Leishmania donovani): 3.87 µg/mL (≈ 23.3 µM)
- IC50 (HCT-116 [9]): 1.03 µg/mL (≈ 6.2 µM)
Compound: C[C@]1([C@H]2CC=C(C=O)CC2)CO1
- Activity (OVCAR-8 [5]): 96.32%
- Activity (SF-295 [6]): 96.32%
- IC50 (SF-295 [8]): 1.03 µg/mL (≈ 6.2 µM)
- Activity (HCT-116 [10]): 96.32%

Compound: CC(C)=CCCC1(C)OC1C=O (stereo in doubt; 10b)
- IC50 (MIA PaCa-2; Homo sapiens, MIA PaCa-2, 72 h): 94 µM
- IC50 at 72 h [11]: 162 µM
- IC50 ([4]; Homo sapiens, DeFew, 72 h): 89 µM

Compound: C[C@@H]1NC(=O)[C@@H](C)NC(=O)[C@H](CCCCCC(=O)[C@@H]2CO2)NC(=O)[C@H]2CCCN2C1=O (cyclo(A[dP][Aoe][dA]))
- IC50 (BE(2)-C): 0.015 µM
- IC50 (T47D): 0.037 µM
- IC50 [12]: 0.018 µM

Compound: CO[C@H]1[C@@H](OC)C[C@H](C)[C@@H](OC)C2=CC(=O)C(N3CCN(C)CC3)=C(NC(=O)/C(C)=C/C=C\[C@H](OC)[C@H](OC(N)=O)C3(C)CC3[C@@H]1C)C2=O (stereo not given in full)
- T/C (B16): 155%
- T/C (Sarcoma-180 [13]): 167%
- T/C [14]: 358%
- T/C (Ehrlich): 141%
- T/C (Sarcoma-180 [15]): 200%

Compound: C[C@H]1C(=O)OC([C@@H](O)[C@](C)(O)[C@H]2[C@@H](O)C[C@H]3[C@@H]4C[C@H]5O[C@]56[C@@H](O)C=CC(=O)[C@]6(C)[C@H]4CC[C@]23C)[C@@H]1C (stereo not given in full)
- Activity (SW480): 33.8%
